What was measured:
Type in all cases: in vivo
[1] = system: CYP2E1, iNOS and 3-NT proteins in the liver; test: hepatic CYP2E1 expression and activity and oxidative stress marker proteins in alcohol-exposed mice
Description: CYP2E1 Activity Analysis Liver solutions were each analyzed with an ELISA kit for CYP2E1, manufactured by Claud-clone corporation (Houston, Tex.), according to the manufacturer's instructions.
Portions of liver tissue and small intestine from each mouse were homogenized with RIPA buffer. Equally pooled protein in an amount of 50 ug collected from different mouse samples within the same group were separated by SDS/PAGE and transferred to nitrocellulose membranes. These membranes were incubated with polyclonal antibodies against CYP2E1 (1:5,000 dilution; Abcam), p-JNK (1:1,000 dilution; Cell Signaling), 3-NT (1:5,000 dilution; Abcam), iNOS (1:5,000 dilution; Abcam), cleaved caspase-3 (1:1,000 dilution; Cell Signaling), ZO-1 (1:5,000 dilution; Abcam), and claudin-1 (1:1,000 dilution; Thermo Fisher). Each mouse monoclonal antibody against JNK (1:1,000 dilution; Cell Signaling), Bax (1:1,000 dilution; Santa Cruz Biotechnology), or +-actin (1:10,000 dilution; Santa Cruz Biotechnology) was used to detect specific antigenic targets. After washing the nitrocellulose membranes three times with PBS at 10-minute intervals, horseradish peroxidase (HRP)-conjugated anti-rabbit or anti-mouse IgG (manufactured by Santa Cruz Biotechnology) was diluted at a ratio of 1:5,000 and used as a secondary antibody. Relative protein images were determined using the HRP-binding secondary antibody and an ECL substrate (Thermo Fishers). The intensity of immune response bands was quantified by density using ImageJ software (National Institutes of Health).
To evaluate the effect of ellagic acid (EA) on hepatic oxidative stress, the expression and activity levels of CYP2E1 proteins were measured.

[2] = system: plasma endotoxin; test: plasma endotoxin level (LAL chromogenic kit) in alcohol-exposed mice; settings: EA-pretreated group vs alcohol-exposed group; EA 60 mg/Kg daily oral 14 days; FIG. 7
Description: (§1) All animal testing procedures were performed in accordance with Andong National University's small animal testing guidelines, and were approved by the Andong National University Animal Care and Use Committee. All mice were housed where food and water were provided autonomously, and lighting was controlled (12-hour light/dark cycle). The ellagic acid was orally administered to 6-week-old female C57BL/6J mice at a daily dose of 60 mg/Kg as a physiologically and clinically relevant dose, and 200 mg/Kg silymarin was administered as a positive control. Water was orally administered to control mice. After the administration of ellagic acid for 14 days, alcohol or dextrose (control) was orally administered to some of the mice at a dose of 5 g/Kg, three times at 12-hour intervals. The mice were sacrificied 1 hour after the last administration.
Plasma endotoxin levels were measured using a commercial endpoint LAL Chromogenic Endotoxin Quantitation Kit manufactured by Thermo Fisher Scientific (Waltham, Mass.) and having a concentration range of 0.015 to 1.2 EU/mL.
(§2) Intestinal microbial products can be stimulated by intestinal leak and endotoxins. Plasma endotoxin and intestinal TNF-α levels were measured to determine whether ellagic acid (EA)-mediated prophylaxis occurred at altered levels of microbial composition.

[3] = system: hepatic triglyceride (TG); test: hepatic triglyceride (TG) level in alcohol-exposed mice; settings: EA-pretreated group vs alcohol-exposed group; FIG. 14
Description: as §1
The level of triglyceride (TG) in the liver was measured using a commercially available kit manufactured by Asan Co., Ltd. (Gimpo, South Korea).
(§3) To evaluate the effect of ellagic acid (EA) on hepatic fat accumulation, and plasma ALT and hepatic triglyceride levels, liver tissues taken from mouse models were histologically analyzed through H/E staining and Oil Red O staining.

[4] = system: CYP2E1, iNOS, and 3-NT proteins in the intestine; test: intestinal oxidative stress marker proteins (immunoblot) in alcohol-exposed mice; settings: EA-pretreated group vs alcohol-exposed group; FIG. 9
Description: Portions of liver tissue and small intestine from each mouse were homogenized with RIPA buffer. Equally pooled protein in an amount of 50 ug collected from different mouse samples within the same group were separated by SDS/PAGE and transferred to nitrocellulose membranes. These membranes were incubated with polyclonal antibodies against CYP2E1 (1:5,000 dilution; Abcam), p-JNK (1:1,000 dilution; Cell Signaling), 3-NT (1:5,000 dilution; Abcam), iNOS (1:5,000 dilution; Abcam), cleaved caspase-3 (1:1,000 dilution; Cell Signaling), ZO-1 (1:5,000 dilution; Abcam), and claudin-1 (1:1,000 dilution; Thermo Fisher). Each mouse monoclonal antibody against JNK (1:1,000 dilution; Cell Signaling), Bax (1:1,000 dilution; Santa Cruz Biotechnology), or +-actin (1:10,000 dilution; Santa Cruz Biotechnology) was used to detect specific antigenic targets. […] Relative protein images were determined using the HRP-binding secondary antibody and an ECL substrate (Thermo Fishers). The intensity of immune response bands was quantified by density using ImageJ software (National Institutes of Health).
To evaluate the effect of ellagic acid on intestinal oxidative stress, the expression levels of CYP2E1, iNOS, and 3-NT proteins were measured.

[5] = system: plasma ROS; test: plasma ROS level (DCFH-DA) in alcohol-exposed mice; settings: FIG. 18
Description: as §1
(§4) Levels of plasma ROS were visualized with 2′,7′-dichlorofluorescein diacetate (DCFH-DA) purchased from Thermo Fisher Scientific. After the DCFH-DA was incubated at 37° C. for 20 minutes, DCFH-DA fluorescence was measured. Plasma alcohol levels were measured using a commercially available kit manufactured by BioVision.
CYP2E1 generates reactive oxygen species (ROS) in alcoholic and nonalcoholic liver disease.

[6] = system: ZO-1 and β-catenin; test: intestinal tight junction (TJ) and anchoring junction (AJ) protein expression in alcohol-exposed mice; settings: EA-pretreated group within the alcohol-exposed group; FIG. 10
Description: as §1, with “After the administration of ellagic acid for 14 days, alcohol or dextrose (control) was orally administered to some of the mice at a dose of 5 g/Kg, three times at 12-hour intervals. The mice were sacrificied 1 hour after the last administration.” left out
Portions of liver tissue and small intestine from each mouse were homogenized with RIPA buffer. […] Relative protein images were determined using the HRP-binding secondary antibody and an ECL substrate (Thermo Fishers). The intensity of immune response bands was quantified by density using ImageJ software (National Institutes of Health).
(§5) Changes in the expression of intestinal tight junction (TJ) and anchoring junction (AJ) proteins are observed in mouse models with alcohol-induced intestinal leak. To evaluate whether ellagic acid (EA) prevents alcohol-induced intestinal leakage, the expression levels of intestinal TJ and AJ proteins after the ellagic acid administration were measured.

[7] = system: plasma ALT; test: plasma ALT level in alcohol-exposed mice; settings: EA-pretreated group vs alcohol-exposed group; FIG. 15
Description: as §1
(§6) Portions of the largest liver lobes or small intestines from the mice pretreated with ellagic acid and from the controls were fixed in neutral formalin. […] Plasma ALT levels of each mouse were measured using a standard endpoint colorimetric assay kit (Bio Vision, Milpitas, Calif.).
as §3

[8] = system: cecal microbiota; test: cecal microbiota 16S sequencing, alcohol exposure and EA pretreatment in mice
Description: All animal testing procedures were performed in accordance with Andong National University's small animal testing guidelines, and were approved by the Andong National University Animal Care and Use Committee. All mice were housed where food and water were provided autonomously, and lighting was controlled (12-hour light/dark cycle). The ellagic acid was orally administered to 6-week-old female C57BL/6J mice at a daily dose of 60 mg/Kg as a physiologically and clinically relevant dose, and 200 mg/Kg silymarin was administered as a positive control. Water was orally administered to control mice. After the administration of ellagic acid for 14 days, alcohol or dextrose (control) was orally administered to some of the mice at a dose of 5 g/Kg, three times at 12-hour intervals. The mice were […] 1 hour after the last administration. Fecal samples were aseptically collected from the cecum of each mouse and frozen at -80° C. DNA was extracted using the Mag-Bind Universal Pathogen DNA Kit (Chunlab, Seoul, South Korea) according to the manufacturer's instructions. DNA sequencing of bacterial 16S rRNA in each fecal sample was performed at Chunlab (https://www.chunlab.com/). Intestinal microbiome and bacterial products have been associated with liver diseases (ALD). To evaluate the effect of ellagic acid (EA) on the intestinal microbial distribution in an alcoholic liver disease model, the cecal microbiota according to alcohol exposure and EA pretreatment in mice was evaluated according to the experimental design of FIG. 1. […] However, in the case of the alcohol exposure group, Verrucomicrobia phylum increased whereas Firmicutes phylum decreased.

[9] = blood alcohol concentration (BAC) in alcohol-exposed mice; settings: EA-pretreated group; FIG. 16
Description: as §1, §4, §3

[10] = system: fat accumulation in the liver; test: liver histology (H/E and Oil Red O staining) in alcohol-exposed mice; settings: EA-pretreated group vs alcohol-exposed group, FIGS. 12 and 13
Description: as §1, §6, §3

[11] = system: p-JNK, Bax, cleaved caspase-3 in the liver; test: liver apoptosis markers (Western blot, cleaved caspase-3 staining, TUNEL) in alcohol-exposed mice
Description: as §1
Portions of liver tissue and small intestine from each mouse were homogenized with RIPA buffer. Equally pooled protein in an amount of 50 ug collected from different mouse samples within the same group were separated by SDS/PAGE and transferred to nitrocellulose membranes. These membranes were incubated with polyclonal antibodies against CYP2E1 (1:5,000 dilution; Abcam), p-JNK (1:1,000 dilution; Cell Signaling), 3-NT (1:5,000 dilution; Abcam), iNOS (1:5,000 dilution; Abcam), cleaved caspase-3 (1:1,000 dilution; Cell Signaling), ZO-1 (1:5,000 dilution; Abcam), and claudin-1 (1:1,000 dilution; Thermo Fisher). Each mouse monoclonal antibody against JNK (1:1,000 dilution; Cell Signaling), Bax (1:1,000 dilution; Santa Cruz Biotechnology), or […] (1:10,000 dilution; Santa Cruz Biotechnology) was used to detect specific antigenic targets. […] Relative protein images were determined using the HRP-binding secondary antibody and an ECL substrate (Thermo Fishers). The intensity of immune response bands was quantified by density using ImageJ software (National Institutes of Health). […]

[12] = system: TNF-α; test: intestinal TNF-α level (ELISA) in alcohol-exposed mice; settings: EA pretreatment vs alcohol-exposed group; EA 60 mg/Kg daily oral 14 days; FIG. 8
Description: as §1
Liver solutions were analyzed using an ELISA kit for TNF-α, manufactured by Abcam (Cambridge, United Kingdom), according to the manufacturer's instructions. To use equal amounts of protein for the ELISA, protein concentration was measured with BCA reagent manufactured by BioRad (Hercules, Calif.). […]
as §2

[13] = system: intestinal cells; test: apoptosis of intestinal cells in alcohol-exposed mice; settings: EA pretreatment group, alcohol-induced; FIG. 11
Description: as §1
Small intestine and liver specimens were fixed overnight in 10% buffered formalin and embedded in paraffin. […]
as §5

[14] = EA-pretreated group vs alcohol-exposed group, FIGS. 17 and 19
[15] = EA-pretreated group vs alcohol-exposed mice, FIG. 19
[16] = summary statement, alcohol intake
[17] = EA-pretreated group vs alcohol-exposed group, Western blot, FIG. 20

O=c1oc2c(O)c(O)cc3c(=O)oc4c(O)c(O)cc1c4c23 [ellagic acid]
activity level of CYP2E1 proteins in the liver [1, 14]: decreased | expression level of CYP2E1 proteins in the liver [1, 14]: decreased | hepatic 3-NT proteins [1, 15]: decreased | hepatic inducible nitric oxide synthase (iNOS) protein [1, 15]: decreased | alcohol-induced increase in plasma endotoxin concentration [2]: suppressed | hepatic triglyceride (TG) level [3]: decreased | level of 3-NT proteins in the intestine [4]: decreased | level of CYP2E1 protein in the intestine [4]: decreased | level of iNOS protein in the intestine [4]: decreased | increase in the level of plasma ROS attributable to alcohol intake [5]: suppressed | level of intestinal ZO-1 [6]: recovery | level of intestinal β-catenin [6]: recovery | plasma ALT level [7]: decreased | gene of the genus Bacteroides ([8]; EA-pretreated mice vs alcohol-exposed group, EA 60 mg/Kg daily oral 14 days, alcohol 5 g/Kg three times, FIG. 4): decreased | gene level of E. coli ([8]; EA-pretreated mice vs alcohol-exposed group, EA 60 mg/Kg daily oral 14 days, alcohol 5 g/Kg three times, FIG. 5): decreased to a level similar to that of the control group | change in intestinal microbial distribution at the phylum level ([8]; control group and EA pretreatment group, EA 60 mg/Kg daily oral 14 days, female C57BL/6J mice, FIGS. 2 and 3): no significant change | growth of Bacteroidetes (harmful bacteria) attributable to alcohol intake [8, 16]: inhibits the growth | growth of Firmicutes (beneficial bacteria) [8, 16]: increases the growth | growth of Verrucomicrobia (harmful bacteria) attributable to alcohol intake [8, 16]: inhibits the growth | increase in blood alcohol concentration (BAC) caused by alcohol intake [9]: suppressed | fat accumulation in the liver [10]: decreased | Bax (apoptosis marker protein) in the liver [11, 17]: decreased | p-JNK (apoptosis marker protein) in the liver [11, 17]: decreased | apoptosis marker proteins by cleaved caspase-3 staining and TUNEL analysis in the liver ([11]; EA-pretreated group vs mice exposed to alcohol, FIGS. 21 and 22): decreased | alcohol-induced increase in intestinal TNF-α level [12]: suppressed | apoptosis of intestinal cells [13]: decrease

From patent publication US20220257559A1, “INTESTINAL MICROBIOME-IMPROVING COMPOSITION INCLUDING ELLAGIC ACID AS ACTIVE INGREDIENT” (Andong National University Industry-Academic Cooperation …, priority 2021, published 2022)
